Results: patent US10017462B1, “Antimicrobial poly(guanylurea)s” (THE FLORIDA INTERNATIONAL UNIVERSITY BOARD OF TRUSTEES, priority 2018, dated 2018)
Converted amounts (≈) assume the structure as drawn.

System: methicillin-resistant Staphylococcus aureus (MRSA) (ATCC BAA-44)
Test: MIC assay, broth microdilution with resazurin
Format: cell-based
Conditions: Mueller Hinton broth, 20-44 h at 37° C.
Description: Antimicrobial assay antimicrobial activities of the polymers were determined by the minimal inhibitory concentration (MIC) assay. MIC of Mycobacterium smegmatis (ATCC 700084), Shigella flexneri (ATCC 9199), Staphylococcus aureus (ATCC 14775) and methicillin-resistant Staphylococcus aureus (MRSA) (ATCC BAA-44) were determined by the standard broth microdilution method with slight modification. In brief, different bacteria were grown in either Mueller Hinton broth (MHB) or 7H9 broth (M. smegmatis) overnight at 37° C. Next day, the cells were first OD600 adjusted to 0.1 and then further diluted 1:100 in the respective media and 50 μL (˜10^5 CFU) is added to 96 well-microplate wells containing 50 μL serial dilutions of the polymers. The plates were incubated for 20-44 h at 37° C. MIC is defined as the lowest concentration of the polymer that inhibits the visual growth of the bacteria. To aid in determining the visual growth of bacteria, resazurin, a red-ox dye is added to the wells at a final concentration of 0.02% and incubated for 4-8 h at 37° C. In the presence of viable cells, resazurin (blue) is reduced to resorfurin (pink) along with an increase in fluorescence. MIC was calculated as the lowest concentration of the polymer that prevented the color change and reduced the fluorescence (Ex 540, Em 590 nm) by 90% when compared to the control wells containing no inhibitor. […]

MIC MRSA: 20 µg/mL (≈ 60.4 µM)
Structure (SMILES): O=C(O)c1cn(C2CC2)c2cc(N3CCNCC3)c(F)cc2c1=O [Ciprofloxacin]
